Experimental findings from patent publication US9458102B2 (priority 2011, dated 2016) are described below.

Read-outs that look alike come from different tables or passages of the source.

For orientation: Kd means the concentration at which binding is half-saturated.

Data set [1] deals with heteromeric rod CNG channels consisting of CNGA1 and CNGB1 subunits (Bos taurus, UniProt Q00194+Q28181). Briefly: biochemical. It is filed as cell-based. The conditions noted are these: for Kd: 2 mM cGMP. How it is done:
Currents were elicited by a voltage step protocol from 0 to −50 to +50 mV (See FIG. 1) in the presence of 2 mM cGMP or 2 mM cGMP and compound (5 μM). Time scale is shown in the lower left-hand corner of the panel and FIG. 1, and the zero current level is indicated by the dotted line.
The solid line indicates the fit of the equation for block at a single binding site.
Time scale is shown in the lower left-hand corner of the panel and FIG. 1, and the zero current level is indicated by the dotted line. […] Solid line indicates the fit of the equation for block at a single binding site.
The effectiveness of retinal rod CNG channel current block by the disclosed compounds was tested in Xenopus oocyte preparations. Excised, inside-out patches pulled from oocytes expressed heteromeric rod CNG channels consisting of CNGA1 and CNGB1 subunits. […] CNG channel currents were elicited by a voltage step protocol to −50 and +50 mV (FIG. 1). The apparent KD value at each membrane potential was estimated first by determining I+B and I−B at steady state, where I+B is the current in the presence of blocker and I−B is current in the absence of blocker, for different blocker concentrations ([B]).
Ovaries were surgically removed from adult Xenopus laevis females (Xenopus Express; Brooksville, Fla.) anesthetized with ice-cold 0.1% tricaine and 0.1% NaHCO3 solution. Oocytes were chemically released from ovarian follicles in Ca^2+-free Barth's solution (88 mM NaCl, 1 mM KCl, 2.4 mM NaHCO3, 0.82 mM MgSO4, 7.5 mM Tris, 2.5 mM sodium pyruvate, 100 U/mL penicillin, and 100 μg/mL streptomycin, pH 7.4) containing 0.1 U/mL Liberase Blendzymes (Roche, Indianapolis, Ind.). Stages IV and V oocytes were visually sorted and stored in ND-96 (96 mM NaCl, 2 mM KCl, 1.8 mM CaCl2, 1 mM MgCl2, 5 mM HEPES, 2.5 mM sodium pyruvate, 100 U/mL penicillin, and 100 μg/mL streptomycin, pH 7.4) at 16° C. Oocytes were co-injected the following day with 33 ng of CNGA1 and 67 ng of CNGB1 cRNA […] synthesized from linearized pGEM-HE expression vectors containing the channel subunit cDNA sequence (Strassmaier T & Karpen J, J Med Chem 50, 4186-4194, (2007), incorporated by reference herein) using T7 mMESSAGE mMACHINE® (Ambion, Austin, Tex.). Injected oocytes were incubated at 18° C. the first day and 16° C. for the remaining days.
(§1) Recordings from inside-out excised patches were made 3-7 days after oocyte injection on an Axopatch 1D® amplifier (Axon Instruments, Foster City, Calif.). Briefly, oocyte vitelline membranes were removed in solution containing 200 mM K aspartate, 20 mM KCl, 1 mM MgCl2, 10 mM EGTA, 10 mM HEPES, pH 7.4. Oocytes were placed in a recording chamber in a solution containing 130 mM NaCl, 2 mM HEPES, 0.02 mM EDTA, 1 mM EGTA, pH 7.6, and borosilicate glass electrodes (1-3 MΩ) were filled with identical solution. Macroscopic currents were filtered at 1 kHz and sampled at 2 kHz using pCLAMP 8.0® software (Axon Instruments). Channels were either fully activated with 2 mM or partially activated with 50 and 100 μM cGMP. […] Glass syringes and Teflon tubing were used to minimize the binding of compounds to surfaces; concentrations passing through the perfusion system were verified by absorbance.

Another data set addresses T1, chymotrypsin (Bos taurus, UniProt P00766).
T1 construct: purchased Worthington Biochemical Co
Briefly: In vitro hydrolysis by chymotrypsin. Type of data set: in vitro ADME. How it is done: All enzymatic assays were performed with 50 μM compound in 0.1M phosphate buffer, pH 7.4, at 37° C. with stirring, unless otherwise noted. Butyrylcholinesterase stock solutions from human serum (Sigma, St. Louis, Mo.) were prepared at 100 U/mL in 0.1 M phosphate buffer, pH 7.4, and stored at −20° C. until use. Hydrolysis was monitored on an 8452A diode array spectrophotometer (Hewlett-Packard). Product peak wavelength absorption was immediately monitored upon addition of compound. Absorbances for complete hydrolysis were determined when there were no further detectable changes. […] All hydrolysis assays were performed in triplicate, and final rate constants are expressed as the mean±SD of the three individually determined rate constants. […] Activity of chymotrypsin (bovine, Worthington Biochemical Co., 190 μg/mL) was verified with 90 μM 4-nitrophenyl acetate in 0.1 M HEPES solution, pH 6.5, at 37° C. with stirring. Hydrolysis product was monitored at 404 nm for 10 min. Activity of proteinase K (from Engyodontium album, Sigma, 165 μg/mL) was verified with 16.5 mg/mL bovine serum albumin in 0.1 M phosphate buffer, pH 7.4, at 37° C. Samples were taken at time point increments up to 2 hours when the reaction reached completion. Samples were analyzed with 12% SDS-PAGE, stained with 0.1% Coomassie Blue.

Data set [2] has as its target T2, Butyrylcholinesterase purified from human blood serum (Homo sapiens, UniProt P06276).
T2 construct: Butyrylcholinesterase purified from human blood serum; purchased Sigma; host or cells: purified from human blood serum
Briefly: In vitro hydrolysis by serum cholinesterase (butyrylcholinesterase). It is filed as in vitro ADME. As to conditions: 50 μM compound, 0.1M phosphate buffer pH 7.4, 37° C.; mean±SD of triplicate. The protocol:
Compound 1 is rapidly hydrolyzed by butyrylcholinesterase in the bloodstream. Butyrylcholinesterase purified from human blood serum was used to test the resistance of the disclosed compounds to hydrolysis.
All enzymatic assays were performed with 50 μM compound in 0.1M phosphate buffer, pH 7.4, at 37° C. with stirring, unless otherwise noted. Butyrylcholinesterase stock solutions from human serum (Sigma, St. Louis, Mo.) were prepared at 100 U/mL in 0.1 M phosphate buffer, pH 7.4, and stored at −20° C. until use. Hydrolysis was monitored on an 8452A diode array spectrophotometer (Hewlett-Packard). Product peak wavelength absorption was immediately monitored upon addition of compound. Absorbances for complete hydrolysis were determined when there were no further detectable changes. […] All hydrolysis assays were performed in triplicate, and final rate constants are expressed as the mean±SD of the three individually determined rate constants. In some experiments with compound 1, samples were taken at the beginning and end of the assay to verify the hydrolysis product and the completion of the reaction by HPLC. These samples were compared to compounds 1 and 3 on a C18 column eluted with 0.1% TFA in water/acetonitrile. Activity of chymotrypsin (bovine, Worthington Biochemical Co., 190 μg/mL) was verified with 90 μM 4-nitrophenyl acetate in 0.1 M HEPES solution, pH 6.5, at 37° C. with stirring. Hydrolysis product was monitored at 404 nm for 10 min. Activity of proteinase K (from Engyodontium album, Sigma, 165 μg/mL) was verified with 16.5 mg/mL bovine serum albumin in 0.1 M phosphate buffer, pH 7.4, at 37° C. Samples were taken at time point increments up to 2 hours when the reaction reached completion. Samples were analyzed with 12% SDS-PAGE, stained with 0.1% Coomassie Blue.

Data set [3] concerns heteromeric rod CNG channels consisting of CNGA1 and CNGB1 subunits. Briefly: CNG channel block at subsaturating cGMP (state dependence of block). Type of data set: cell-based. The conditions noted are these: subsaturating cGMP (50 or 100 μM), +50 mV, normalized to KD at 2 mM cGMP.
From the text: KD values at saturating cGMP were corrected for ion accumulation. Solid lines indicate simulations for exclusive closed channel blockers, using KD/KDsat=(1−Fsat)/(1−FsatI/Imax), where Fsat is the estimated fraction of open heteromeric rod channels in saturating cGMP assuming Fsat=0.3 (a), 0.56 (b), or 0.78 (c). The dotted line is a simulation for a blocker with no preference for state, or KD/KDsat=1. The dashed line is a simulation for an exclusive open channel blocker, using KD/KDsat=(I/Imax)^−1.
The solid lines in FIG. 4 marked a, b, and c represent the expected relationship between KD and the fraction of closed channels for an exclusive closed channel blocker. Each of a, b, and c uses one estimate for the probability of closed heteromeric retinal rod channels at saturating cGMP. The simulations are described in the following references: Matthews G et al, J Physiol 403, 389-405 (1988); Taylor W R & Baylor D A, J Physiol 483 567-582 (1995); and Bucossi G et al, Biophys J 72, 1165-1181 (1997), all of which are incorporated by reference herein. The dotted line represents a simulation of a blocker with no preference as to conformational of the channel. The dashed line represents a simulation for an exclusive open channel blocker.
as §1, with “absorbance. Current traces were digitally filtered at 300 Hz (Gaussian) and averaged using Clampfit 8.2® software. Currents in the absence of cGMP were subtracted from all currents analyzed. KD values were determined and expressed as the mean±SD.” for “absorbance.”

[4] abbreviates: Table 2 (butyl series), +50 mV, read-out: KD(+50).
Setting [5] is: Table 2 (butyl series), −50 mV, read-out: KD(−50).
The mark [6] stands for this setting: octyl series table, +50 mV, read-out: KD(+50).
Where [7] appears, read: octyl series table, −50 mV, read-out: KD(−50).

Chain of heteromeric rod CNG channels consisting of CNGA1 and CNGB1 subunits (Bos taurus, UniProt Q00194+Q28181) (Q00194 whole entry): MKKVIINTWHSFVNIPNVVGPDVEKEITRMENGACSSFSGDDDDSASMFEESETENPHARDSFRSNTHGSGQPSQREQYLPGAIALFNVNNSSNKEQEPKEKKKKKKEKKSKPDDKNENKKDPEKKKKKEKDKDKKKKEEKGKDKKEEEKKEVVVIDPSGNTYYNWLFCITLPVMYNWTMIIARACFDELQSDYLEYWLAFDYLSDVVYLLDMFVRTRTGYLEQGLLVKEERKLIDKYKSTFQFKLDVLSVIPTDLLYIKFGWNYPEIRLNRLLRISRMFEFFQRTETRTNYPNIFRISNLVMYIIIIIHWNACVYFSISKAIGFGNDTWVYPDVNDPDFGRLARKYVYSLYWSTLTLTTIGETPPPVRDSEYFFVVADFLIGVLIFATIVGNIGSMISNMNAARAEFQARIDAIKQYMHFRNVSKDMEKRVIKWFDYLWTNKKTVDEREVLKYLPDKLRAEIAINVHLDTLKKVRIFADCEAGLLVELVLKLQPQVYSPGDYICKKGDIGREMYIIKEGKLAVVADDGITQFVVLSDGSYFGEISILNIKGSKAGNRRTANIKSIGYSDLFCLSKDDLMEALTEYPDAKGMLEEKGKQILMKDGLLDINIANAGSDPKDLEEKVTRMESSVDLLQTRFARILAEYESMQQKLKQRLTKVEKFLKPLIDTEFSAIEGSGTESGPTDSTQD
Chain of heteromeric rod CNG channels consisting of CNGA1 and CNGB1 subunits (Bos taurus, UniProt Q00194+Q28181) (Q28181 whole entry): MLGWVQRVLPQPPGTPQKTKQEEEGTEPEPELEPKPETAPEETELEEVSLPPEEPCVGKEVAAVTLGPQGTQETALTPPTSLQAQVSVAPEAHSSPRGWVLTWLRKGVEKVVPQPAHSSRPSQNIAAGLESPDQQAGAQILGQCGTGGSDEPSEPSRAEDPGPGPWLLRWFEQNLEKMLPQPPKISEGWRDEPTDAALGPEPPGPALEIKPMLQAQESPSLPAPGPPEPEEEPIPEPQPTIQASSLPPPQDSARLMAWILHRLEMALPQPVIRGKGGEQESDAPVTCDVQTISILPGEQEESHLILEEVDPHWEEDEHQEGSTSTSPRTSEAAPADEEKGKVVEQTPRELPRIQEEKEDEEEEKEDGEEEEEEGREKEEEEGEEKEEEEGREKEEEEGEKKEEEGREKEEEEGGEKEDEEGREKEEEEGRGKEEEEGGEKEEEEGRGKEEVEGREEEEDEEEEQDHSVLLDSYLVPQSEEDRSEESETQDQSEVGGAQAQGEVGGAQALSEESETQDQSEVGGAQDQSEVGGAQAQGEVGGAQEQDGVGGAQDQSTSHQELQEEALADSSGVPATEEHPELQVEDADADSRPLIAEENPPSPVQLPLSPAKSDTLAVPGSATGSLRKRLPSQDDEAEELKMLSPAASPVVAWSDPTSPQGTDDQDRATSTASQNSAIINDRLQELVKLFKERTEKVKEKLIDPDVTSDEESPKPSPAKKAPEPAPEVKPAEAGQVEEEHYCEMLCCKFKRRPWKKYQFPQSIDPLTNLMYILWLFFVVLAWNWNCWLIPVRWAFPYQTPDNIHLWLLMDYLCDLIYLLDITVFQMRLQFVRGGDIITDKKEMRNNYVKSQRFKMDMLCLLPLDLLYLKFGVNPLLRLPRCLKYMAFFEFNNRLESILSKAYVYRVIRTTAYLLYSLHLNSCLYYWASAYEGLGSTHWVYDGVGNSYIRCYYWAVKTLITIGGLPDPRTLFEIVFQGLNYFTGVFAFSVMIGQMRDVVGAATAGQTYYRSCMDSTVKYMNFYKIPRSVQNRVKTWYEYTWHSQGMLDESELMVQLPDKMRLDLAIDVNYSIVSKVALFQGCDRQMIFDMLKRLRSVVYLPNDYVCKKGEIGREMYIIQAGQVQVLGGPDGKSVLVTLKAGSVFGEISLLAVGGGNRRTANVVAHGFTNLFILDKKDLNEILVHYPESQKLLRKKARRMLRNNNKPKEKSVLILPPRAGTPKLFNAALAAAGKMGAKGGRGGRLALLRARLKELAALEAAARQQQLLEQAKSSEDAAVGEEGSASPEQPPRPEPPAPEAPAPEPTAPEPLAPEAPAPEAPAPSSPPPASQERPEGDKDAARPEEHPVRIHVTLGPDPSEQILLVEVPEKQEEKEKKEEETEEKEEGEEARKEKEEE
T2 sequence (P06276 29-602): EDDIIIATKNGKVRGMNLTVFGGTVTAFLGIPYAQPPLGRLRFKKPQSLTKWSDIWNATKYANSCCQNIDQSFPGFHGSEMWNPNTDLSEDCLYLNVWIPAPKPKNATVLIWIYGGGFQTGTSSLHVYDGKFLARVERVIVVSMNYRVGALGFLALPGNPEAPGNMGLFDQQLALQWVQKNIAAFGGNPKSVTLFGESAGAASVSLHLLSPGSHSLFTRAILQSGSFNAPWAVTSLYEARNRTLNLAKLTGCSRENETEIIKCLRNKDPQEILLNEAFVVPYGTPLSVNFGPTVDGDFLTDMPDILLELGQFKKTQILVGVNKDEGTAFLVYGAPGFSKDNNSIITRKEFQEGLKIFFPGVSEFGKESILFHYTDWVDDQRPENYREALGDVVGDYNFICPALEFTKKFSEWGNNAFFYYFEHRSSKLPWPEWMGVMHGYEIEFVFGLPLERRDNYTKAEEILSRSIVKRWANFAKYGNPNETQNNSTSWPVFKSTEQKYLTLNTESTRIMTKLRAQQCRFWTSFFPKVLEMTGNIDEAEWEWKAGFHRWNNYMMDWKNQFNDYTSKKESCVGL

Consider `COc1ccc([C@H]2Sc3ccccc3N(CCN(C)C)C(=O)[C@H]2OC(C)=O)cc1` (relative stereo) [l-cis-diltiazem, reference compound], for which the “block of 2 mM cGMP-induced currents” value in data set [1] is 74.2±5.8%.
On to `CC(=O)Oc1ccc([N+](=O)[O-])cc1` [4-nitrophenyl acetate, reference compound], for which the “hydrolysis products with chymotrypsin” value on chymotrypsin was “detected”.
The molecule `CCCCNc1ccc(C(=O)OCCN(C)C)cc1` [Compound 1, 2-(dimethylamino)ethyl 4-(butylamino)benzoate, reference compound] showed a Hydrolysis rate in data set [2] of 132 ± 10 nmol/min/mg. Also, the “state dependence of block (KD vs fraction of closed channels)” value in data set [3] is “better fit the results expected of a closed channel blocker”.
Regarding `CCCCNc1ccc(C(=O)OCCN(C)C)cc1[N+](=O)[O-]` [Compound 12a, 2-(dimethylamino)ethyl 4-(butylamino)-3-nitrobenzoate], the dissociation constant Kd was found to be 5500 ± 3200 nM in data set [1] (setting [4]) and 19600 ± 14400 nM in data set [1] (setting [5]).
The like results for `CCCCNc1ccc(C(=O)OCCN(C)C)cc1OC` [Compound 12b, 2-(dimethylamino)ethyl 4-(butylamino)-3-methoxybenzoate] were, in that order, 4300 ± 800 nM and 18300 ± 4400 nM.
The like results for `CCCCNc1ccc(C(=O)OCCN(C)C)cc1C` [Compound 12c, 2-(dimethylamino)ethyl 4-(butylamino)-3-methylbenzoate] were, in that order, 7800 ± 3100 nM and 28100 ± 13400 nM.
Regarding `CCCCNc1ccc(C(=O)OCCN(C)C)cc1Cl` [Compound 12d, 2-(dimethylamino)ethyl 4-(butylamino)-3-chlorobenzoate], the “improvement of affinity / blocking potency compared to compound 1 (tetracaine)” value in data set [1] is 1.6 fold. Also, the Kd in data set [1] (setting [4]) is 3000 ± 1000 nM; in data set [1] (setting [5]), 12800 ± 4100 nM.
In the case of `CCCCCCCCNc1ccc(C(=O)OCCN(C)C)cc1[N+](=O)[O-]` [Compound 14a, 2-(dimethylamino)ethyl 4-(octylamino)-3-nitrobenzoate], the Kd in data set [1] (setting [6]) amounted to 8000 ± 5800 nM; in data set [1] (setting [7]), 12600 ± 7300 nM.
Consider `CCCCCCCCNc1ccc(C(=O)OCCN(C)C)cc1OC` [Compound 14b, 2-(dimethylamino)ethyl 4-(octylamino)-3-methoxybenzoate], for which the Kd in data set [1] (setting [6]) came to 1250 ± 1230 nM; in data set [1] (setting [7]), 3000 ± 3400 nM.
The corresponding values for `CCCCCCCCNc1ccc(C(=O)OCCN(C)C)cc1C` [Compound 14c, 2-(dimethylamino)ethyl 4-(octylamino)-3-methylbenzoate] are 500 ± 420 nM and 1410 ± 840 nM.
In the case of `CCCCCCCCNc1ccc(C(=O)OCCN(C)C)cc1Cl` [Compound 14d, 2-(dimethylamino)ethyl 4-(octylamino)-3-chlorobenzoate], the “improvement of affinity / blocking potency compared to compound 5” value in data set [1] was “approximately six-fold improvement”. Further, the Kd in data set [1] (setting [6]) is 140 ± 40 nM; in data set [1] (setting [7]), 380 ± 160 nM.
`CCCCCCCCNc1ccc(C(=O)OCCN(C)C)cc1F` [Compound 14e, 2-(dimethylamino)ethyl 4-(octylamino)-3-fluorobenzoate]: the Kd in data set [1] (setting [6]) amounted to 200 ± 100 nM; in data set [1] (setting [7]), 750 ± 860 nM.
As for `CCCCCCCCNc1ccc(C(=O)OCCN(C)C)cc1Br` [Compound 14f, 2-(dimethylamino)ethyl 4-(octylamino)-3-bromobenzoate], the results for the Kd in data set [1] (setting [6]) and in data set [1] (setting [7]) were 140 ± 30 nM and 240 ± 100 nM, respectively.
With `CCCCCCCCNc1ccc(C(=O)OCCN(C)C)c(Cl)c1` [Compound 14g, 2-(dimethylamino)ethyl 4-(octylamino)-2-chlorobenzoate], the dissociation constant (Kd) is 100 ± 90 nM in data set [1] (setting [6]) and 220 ± 130 nM in data set [1] (setting [7]).
